Patent publication US6872690B2, “Herbicidal 2-alkynyl-pyri (mi) dines” (WYETH, priority 2001, dated 2005)

Columns and labels:
Assay type in all cases: in vivo
Abutilon theophrasti [1] = assay: Pre-emergence test; conditions: 3 weeks after treatment
Method: (§1) To evaluate their herbicidal activity, compounds according to the invention are tested using a representative range of plants:
(§2) The pre-emergence tests involve spraying a liquid formulation of the compound onto the soil in which the seeds of the plant species mentioned above has recently been sown.
(§3) The soil used in the tests is a prepared horticultural loam. The formulations used in the tests are prepared from solutions of the test compounds in acetone containing 0.4% by weight of an alkyl-phenol/ethylene oxide condensate available under the trade mark TRITON X-155. These acetone solutions are diluted with water and the resulting formulations applied at dosage levels corresponding to 0.013 kg, 0.025 kg, 0.100 kg or 0.400 kg of active material per hectare in a volume equivalent to 900 litres per hectare. In these tests untreated sown soil are used as controls. From 2 to 4 weeks after treatment, the tests are terminated and each pot is examined and rated according to the rating system set forth below: […]

Alopecurus myosuroides [2] = assay: Pre-emergence test; conditions: 3 weeks after treatment
Method: as §1, §2, §3

Cassia obtusifolia [3] = assay: Pre-emergence test; conditions: 3 weeks after treatment
Method: as §1, §2, §3

Digitaria sanguinalis [4] = assay: Pre-emergence test; conditions: 3 weeks after treatment
Method: as §1, §2, §3

Echinochloa crus-galli [5] = assay: Pre-emergence test; conditions: 3 weeks after treatment
Method: as §1, §2, §3

Galium aparine [6] = assay: Pre-emergence test; conditions: 3 weeks after treatment
Method: as §1, §2, §3

Glycine max [7] = assay: Pre-emergence test; conditions: 3 weeks after treatment
Method: as §1, §2, §3

Ipomoea hederacea [8] = assay: Pre-emergence test; conditions: 3 weeks after treatment
Method: as §1, §2, §3

Lamium purpureum = assay: Pre-emergence test; conditions: 3 weeks after treatment
Method: as §1, §2, §3

Matricaria inodora [9] = assay: Pre-emergence test; conditions: 3 weeks after treatment
Method: as §1, §2, §3

Orysa sativa [10] = assay: Pre-emergence test; conditions: 3 weeks after treatment
Method: as §1, §2, §3

Setaria viridis [11] = assay: Pre-emergence test; conditions: 3 weeks after treatment
Method: as §1, §2, §3

Stellaria media [12] = assay: Pre-emergence test; conditions: 3 weeks after treatment
Method: as §1, §2, §3

Triticum aestivum [13] = assay: Pre-emergence test; conditions: 3 weeks after treatment
Method: as §1, §2, §3

Zea mays [14] = assay: Pre-emergence test; conditions: 3 weeks after treatment
Method: as §1, §2, §3

Abutilon theophrasti [15] = assay: Post-emergence herbicidal activity test; conditions: 2-4 weeks after treatment
Method: as §1
(§4) These acetone solutions are diluted with water and the resulting formulations applied at dosage levels equivalent of about 0.025 to 0. 4 kg per hectare of test compound per pot. After spraying the plants are placed on greenhouse benches and are cared for in the usual manner, commensurate with conventional greenhouse practices. From 2 to 4 weeks after treatment, the seedling plants are examined and rated according to the rating system provided above.

Alopecurus myosuroides [16] = assay: Post-emergence herbicidal activity test; conditions: 2-4 weeks after treatment
Method: as §1, §4

Cassia obtusifolia [17] = assay: Post-emergence herbicidal activity test; conditions: 2-4 weeks after treatment
Method: as §1, §4

Digitaria sanguinalis [18] = assay: Post-emergence herbicidal activity test; conditions: 2-4 weeks after treatment
Method: as §1, §4

Echinochloa crus-galli [19] = assay: Post-emergence herbicidal activity test; conditions: 2-4 weeks after treatment
Method: as §1, §4

Galium aparine [20] = assay: Post-emergence herbicidal activity test; conditions: 2-4 weeks after treatment
Method: as §1, §4

Glycine max [21] = assay: Post-emergence herbicidal activity test; conditions: 2-4 weeks after treatment
Method: as §1, §4

Ipomoea hederacea [22] = assay: Post-emergence herbicidal activity test; conditions: 2-4 weeks after treatment
Method: as §1, §4

Matricaria inodora [23] = assay: Post-emergence herbicidal activity test; conditions: 2-4 weeks after treatment
Method: as §1, §4

Orysa sativa [24] = assay: Post-emergence herbicidal activity test; conditions: 2-4 weeks after treatment
Method: as §1, §4

Setaria viridis [25] = assay: Post-emergence herbicidal activity test; conditions: 2-4 weeks after treatment
Method: as §1, §4

Stellaria media [26] = assay: Post-emergence herbicidal activity test; conditions: 2-4 weeks after treatment
Method: as §1, §4

Triticum aestivum [27] = assay: Post-emergence herbicidal activity test; conditions: 2-4 weeks after treatment
Method: as §1, §4

Zea mays [28] = assay: Post-emergence herbicidal activity test; conditions: 2-4 weeks after treatment
Method: as §1, §4

Cc1cc(C#Cc2ccccc2)nc(Oc2cc(C(F)(F)F)nn2C)c1 [Example 1, 4-methyl-6-phenylethynyl-2-(1-methyl-3-trifluoromethylpyrazol-5-yloxy)pyridine]
Assessment (pre-emergence application) ABUTH (Abutilon theophrasti [1]; 0.013 kg/ha): 4 (4-Injury)
Assessment (pre-emergence application) ABUTH (Abutilon theophrasti [1]; 0.100 kg/ha): 5 (5-Definite injury)
Assessment (pre-emergence application) ABUTH (Abutilon theophrasti [1]; 0.400 kg/ha): 9 (9-Complete kill)
Assessment (pre-emergence application) ALOMY (Alopecurus myosuroides [2]; 0.013 kg/ha): 1 (1-Trace effect)
Assessment (pre-emergence application) ALOMY (Alopecurus myosuroides [2]; 0.025 kg/ha): 2 (2-Slight effect)
Assessment (pre-emergence application) ALOMY (Alopecurus myosuroides [2]; 0.100 kg/ha): 4 (4-Injury)
Assessment (pre-emergence application) ALOMY (Alopecurus myosuroides [2]; 0.400 kg/ha): 8 (8-Approaching complete kill)
Assessment (pre-emergence application) CASOB (Cassia obtusifolia [3]; 0.013 kg/ha): 1 (1-Trace effect)
Assessment (pre-emergence application) CASOB (Cassia obtusifolia [3]; 0.400 kg/ha): 8 (8-Approaching complete kill)
Assessment (pre-emergence application) DIGSA (Digitaria sanguinalis [4]; 0.013 kg/ha): 5 (5-Definite injury)
Assessment (pre-emergence application) DIGSA (Digitaria sanguinalis [4]; 0.025 kg/ha): 5 (5-Definite injury)
Assessment (pre-emergence application) DIGSA (Digitaria sanguinalis [4]; 0.100 kg/ha): 9 (9-Complete kill)
Assessment (pre-emergence application) DIGSA (Digitaria sanguinalis [4]; 0.400 kg/ha): 9 (9-Complete kill)
Assessment (pre-emergence application) ECHCG (Echinochloa crus-galli [5]; 0.013 kg/ha): 1 (1-Trace effect)
Assessment (pre-emergence application) ECHCG (Echinochloa crus-galli [5]; 0.025 kg/ha): 4 (4-Injury)
Assessment (pre-emergence application) ECHCG (Echinochloa crus-galli [5]; 0.100 kg/ha): 5 (5-Definite injury)
Assessment (pre-emergence application) ECHCG (Echinochloa crus-galli [5]; 0.400 kg/ha): 8 (8-Approaching complete kill)
Assessment (pre-emergence application) GALAP (Galium aparine [6]; 0.013 kg/ha): 1 (1-Trace effect)
Assessment (pre-emergence application) GALAP (Galium aparine [6]; 0.025 kg/ha): 2 (2-Slight effect)
Assessment (pre-emergence application) GALAP (Galium aparine [6]; 0.100 kg/ha): 3 (3-Moderate effect)
Assessment (pre-emergence application) GALAP (Galium aparine [6]; 0.400 kg/ha): 7 (7-Good herbicidal effect)
Assessment (pre-emergence application) GLXMA (Glycine max [7]; 0.100 kg/ha): 3 (3-Moderate effect)
Assessment (pre-emergence application) GLXMA (Glycine max [7]; 0.400 kg/ha): 4 (4-Injury)
Assessment (pre-emergence application) IPOHE (Ipomoea hederacea [8]; 0.013 kg/ha): 3 (3-Moderate effect)
Assessment (pre-emergence application) IPOHE (Ipomoea hederacea [8]; 0.100 kg/ha): 4 (4-Injury)
Assessment (pre-emergence application) IPOHE (Ipomoea hederacea [8]; 0.400 kg/ha): 9 (9-Complete kill)
Assessment (pre-emergence application) LAMPU (Lamium purpureum; 0.013 kg/ha): 7 (7-Good herbicidal effect)
Assessment (pre-emergence application) LAMPU (Lamium purpureum; 0.100 kg/ha): 8 (8-Approaching complete kill)
Assessment (pre-emergence application) LAMPU (Lamium purpureum; 0.400 kg/ha): 8 (8-Approaching complete kill)
Assessment (pre-emergence application) MATIN (Matricaria inodora [9]; 0.013 kg/ha): 5 (5-Definite injury)
Assessment (pre-emergence application) MATIN (Matricaria inodora [9]; 0.025 kg/ha): 7 (7-Good herbicidal effect)
Assessment (pre-emergence application) MATIN (Matricaria inodora [9]; 0.100 kg/ha): 8 (8-Approaching complete kill)
Assessment (pre-emergence application) MATIN (Matricaria inodora [9]; 0.400 kg/ha): 8 (8-Approaching complete kill)
Assessment (pre-emergence application) ORYSA (Orysa sativa [10]; 0.013 kg/ha): 1 (1-Trace effect)
Assessment (pre-emergence application) ORYSA (Orysa sativa [10]; 0.025 kg/ha): 2 (2-Slight effect)
Assessment (pre-emergence application) ORYSA (Orysa sativa [10]; 0.100 kg/ha): 3 (3-Moderate effect)
Assessment (pre-emergence application) ORYSA (Orysa sativa [10]; 0.400 kg/ha): 5 (5-Definite injury)
Assessment (pre-emergence application) SETVI (Setaria viridis [11]; 0.013 kg/ha): 4 (4-Injury)
Assessment (pre-emergence application) SETVI (Setaria viridis [11]; 0.025 kg/ha): 7 (7-Good herbicidal effect)
Assessment (pre-emergence application) SETVI (Setaria viridis [11]; 0.100 kg/ha): 8 (8-Approaching complete kill)
Assessment (pre-emergence application) SETVI (Setaria viridis [11]; 0.400 kg/ha): 9 (9-Complete kill)
Assessment (pre-emergence application) STEME (Stellaria media [12]; 0.013 kg/ha): 5 (5-Definite injury)
Assessment (pre-emergence application) STEME (Stellaria media [12]; 0.025 kg/ha): 8 (8-Approaching complete kill)
Assessment (pre-emergence application) STEME (Stellaria media [12]; 0.100 kg/ha): 9 (9-Complete kill)
Assessment (pre-emergence application) STEME (Stellaria media [12]; 0.400 kg/ha): 9 (9-Complete kill)
Assessment (pre-emergence application) TRZWA (Triticum aestivum [13]; 0.013 kg/ha): 0 (0-No effect)
Assessment (pre-emergence application) TRZWA (Triticum aestivum [13]; 0.025 kg/ha): 0 (0-No effect)
Assessment (pre-emergence application) TRZWA (Triticum aestivum [13]; 0.100 kg/ha): 2 (2-Slight effect)
Assessment (pre-emergence application) TRZWA (Triticum aestivum [13]; 0.400 kg/ha): 3 (3-Moderate effect)
Assessment (pre-emergence application) ZEAMX (Zea mays [14]; 0.013 kg/ha): 1 (1-Trace effect)
Assessment (pre-emergence application) ZEAMX (Zea mays [14]; 0.025 kg/ha): 2 (2-Slight effect)
Assessment (pre-emergence application) ZEAMX (Zea mays [14]; 0.100 kg/ha): 2 (2-Slight effect)
Assessment (pre-emergence application) ZEAMX (Zea mays [14]; 0.400 kg/ha): 4 (4-Injury)
Post-emergence application ABUTH (Abutilon theophrasti [15]; 0.025 kg/ha): 4 (4-Injury)
Post-emergence application ABUTH (Abutilon theophrasti [15]; 0.100 kg/ha): 5 (5-Definite injury)
Post-emergence application ABUTH (Abutilon theophrasti [15]; 0.400 kg/ha): 6 (6-Herbicidal effect)
Post-emergence application ALOMY (Alopecurus myosuroides [16]; 0.025 kg/ha): 4 (4-Injury)
Post-emergence application ALOMY (Alopecurus myosuroides [16]; 0.100 kg/ha): 7 (7-Good herbicidal effect)
Post-emergence application ALOMY (Alopecurus myosuroides [16]; 0.400 kg/ha): 8 (8-Approaching complete kill)
Post-emergence application CASOB (Cassia obtusifolia [17]; 0.025 kg/ha): 6 (6-Herbicidal effect)
Post-emergence application CASOB (Cassia obtusifolia [17]; 0.100 kg/ha): 7 (7-Good herbicidal effect)
Post-emergence application CASOB (Cassia obtusifolia [17]; 0.400 kg/ha): 7 (7-Good herbicidal effect)
Post-emergence application DIGSA (Digitaria sanguinalis [18]; 0.025 kg/ha): 3 (3-Moderate effect)
Post-emergence application DIGSA (Digitaria sanguinalis [18]; 0.100 kg/ha): 7 (7-Good herbicidal effect)
Post-emergence application DIGSA (Digitaria sanguinalis [18]; 0.400 kg/ha): 7 (7-Good herbicidal effect)
Post-emergence application ECHCG (Echinochloa crus-galli [19]; 0.025 kg/ha): 4 (4-Injury)
Post-emergence application ECHCG (Echinochloa crus-galli [19]; 0.100 kg/ha): 7 (7-Good herbicidal effect)
Post-emergence application ECHCG (Echinochloa crus-galli [19]; 0.400 kg/ha): 8 (8-Approaching complete kill)
Post-emergence application GALAP (Galium aparine [20]; 0.025 kg/ha): 6 (6-Herbicidal effect)
Post-emergence application GALAP (Galium aparine [20]; 0.100 kg/ha): 6 (6-Herbicidal effect)
Post-emergence application GALAP (Galium aparine [20]; 0.400 kg/ha): 6 (6-Herbicidal effect)
Post-emergence application GLXMA (Glycine max [21]; 0.025 kg/ha): 5 (5-Definite injury)
Post-emergence application GLXMA (Glycine max [21]; 0.100 kg/ha): 6 (6-Herbicidal effect)
Post-emergence application GLXMA (Glycine max [21]; 0.400 kg/ha): 6 (6-Herbicidal effect)
Post-emergence application IPOHE (Ipomoea hederacea [22]; 0.025 kg/ha): 6 (6-Herbicidal effect)
Post-emergence application IPOHE (Ipomoea hederacea [22]; 0.400 kg/ha): 8 (8-Approaching complete kill)
Post-emergence application MATIN (Matricaria inodora [23]; 0.025 kg/ha): 4 (4-Injury)
Post-emergence application MATIN (Matricaria inodora [23]; 0.100 kg/ha): 5 (5-Definite injury)
Post-emergence application MATIN (Matricaria inodora [23]; 0.400 kg/ha): 6 (6-Herbicidal effect)
Post-emergence application ORYSA (Orysa sativa [24]; 0.025 kg/ha): 2 (2-Slight effect)
Post-emergence application ORYSA (Orysa sativa [24]; 0.100 kg/ha): 3 (3-Moderate effect)
Post-emergence application ORYSA (Orysa sativa [24]; 0.400 kg/ha): 4 (4-Injury)
Post-emergence application SETVI (Setaria viridis [25]; 0.025 kg/ha): 7 (7-Good herbicidal effect)
Post-emergence application SETVI (Setaria viridis [25]; 0.100 kg/ha): 8 (8-Approaching complete kill)
Post-emergence application SETVI (Setaria viridis [25]; 0.400 kg/ha): 8 (8-Approaching complete kill)
Post-emergence application STEME (Stellaria media [26]; 0.025 kg/ha): 5 (5-Definite injury)
Post-emergence application STEME (Stellaria media [26]; 0.100 kg/ha): 6 (6-Herbicidal effect)
Post-emergence application STEME (Stellaria media [26]; 0.400 kg/ha): 7 (7-Good herbicidal effect)
Post-emergence application TRZWA (Triticum aestivum [27]; 0.025 kg/ha): 2 (2-Slight effect)
Post-emergence application TRZWA (Triticum aestivum [27]; 0.100 kg/ha): 3 (3-Moderate effect)
Post-emergence application TRZWA (Triticum aestivum [27]; 0.400 kg/ha): 3 (3-Moderate effect)
Post-emergence application ZEAMX (Zea mays [28]; 0.025 kg/ha): 2 (2-Slight effect)
Post-emergence application ZEAMX (Zea mays [28]; 0.100 kg/ha): 4 (4-Injury)
Post-emergence application ZEAMX (Zea mays [28]; 0.400 kg/ha): 5 (5-Definite injury)
